{"source": "patent US8598212B2", "about": "“Therapeutic agent and preventative agent for alzheimer's disease” (Toray Industries, Inc., priority 2010, dated 2013)", "key": {"[1]": {"tested_on": "rats with medial septal lesions", "details": "0.5 mg/kg; Ogura et al., 1998; cited from earlier work"}, "[2]": {"tested_on": "rat diabetic neuropathic pain model", "details": "Chen et al., 2009; cited from earlier work"}, "[3]": {"tested_on": "patients with complex regional pain syndrome", "details": "Sinia et al., Clin J Pain, 2007; cited from earlier work"}, "[4]": {"tested_on": "mouse partial sciatic nerve ligation model", "test": "von Frey test in mouse partial sciatic nerve ligation model (Seltzer model)", "type": "in vivo, ICR mice", "details": "for inhibition in vivo at 10 mg/kg / von Frey Total Score of 1 Hour after Oral Administration (Mean ± S.E.), Test Compound-Administered Group: dose 10 mg/kg oral; for von Frey Total Score of 1 Hour after Oral Administration (Mean ± S.E.), Test Compound-Administered Group: n = 5-6, 7 days after ligation", "procedure": "As a reference example, the mouse partial sciatic nerve ligation model (Seltzer model), by which neuropathic pain can be evaluated, was used to evaluate the analgesic effect of Compound (I).\nMouse models of partial sciatic nerve ligation were prepared according to Seltzer's method (Malmberg et al., Pain, 1998, vol. 76, p. 215-222). Male ICR mice of 5 weeks old were anesthetized with Sodium pentobarbital (70 mg/kg, i.p.), and thereafter, the sciatic nerve at the femoral region of the right hind limb of each mouse was exposed, and the sciatic nerve was triply ligated tightly with silk suture of 8-0 (NATSUME SEISAKUSHO) under microscope so that only half thickness of the nerve was trapped in the ligature, which mice were used as a ligation group. The mice whose sciatic nerves were exposed but not ligated were used as a sham operation group.\nEvaluation of neuropathic pain (hereinafter “von Frey test”) was carried out as follows. Mice were conditioned for at least 1 hour in an acryl cage for measurement (NATSUME SEISAKUSHO) placed on a wire net. Thereafter, using a filament (North Coast Medical, Inc. CA, USA) which exerted a pressure of 0.16 g, the mice were subjected to mechanical tactile stimulus by applying the filament to the plantar surface of both hindpaws 3 times, each for 3 seconds, with an interval of 3 seconds.\nSeven days after the sciatic nerve ligation, test compounds were orally administered to the mice. Prior to the oral administration of the test compounds, the von Frey test was carried out to split the animals of the ligation group into vehicle groups and test compound-administered groups so that the sums of the total scores of the groups were equalized. The mice of the sham operation groups, the vehicle groups and the test compound-administered groups were subjected to the von Frey test 1 hour, 2 hours and 3 hours after oral administration of a vehicle or a test compound, and the obtained scores were used as an indicator of analgesic effect. As a vehicle of test compound solution or suspension, dimethyl sulfoxide (hereinafter “DMSO”):Tween80:distilled water (1:1:8), 27% hydroxypropyl-β-cyclodextrin (hereinafter “27% HP-β-CD”) or 0.5% MC was used.\nFor evaluation of drug efficacy, data were statistically processed by the unpaired multigroup t test (adjusted by Dunnett), taking the vehicle group of each measurement time as a control."}, "[5]": {"tested_on": "Alzheimer's disease model rats", "test": "Morris water maze test in Alzheimer's disease model rats (basal ganglia destroyed with ibotenic acid)", "type": "in vivo, Wistar rats", "details": "30 mg/kg oral once per day from Day 0 after destruction treatment, not given just before trials; Day 10 to Day 12; compared to vehicle-administered group"}, "[6]": {"tested_on": "rat neuropathic pain model", "details": "Clayton et al., Anesthesiology, 2007; cited from earlier work"}, "[7]": {"details": "Mus musculus, po, 1 h, relative to vehicle and sham operation groups, read-out: Score Improvement"}}, "note": "Counter-ions that a name gives are not always drawn."}
{"smiles": "COc1cc2c(cc1OC)C(=O)C(CC1CCN(Cc3ccccc3)CC1)C2", "note": "(centres unmarked) [donepezil hydrochloric acid salt]", "values": [{"measurement": "effectiveness in the Morris water maze test", "setting": "[1]", "result": "effective"}]}
{"smiles": "CC12CC3CC(C)(C1)CC(N)(C3)C2", "note": "[memantine]", "values": [{"measurement": "analgesic effect", "setting": "[2]", "result": "exhibits an analgesic effect"}, {"measurement": "analgesic effect", "setting": "[3]", "result": "exhibits an analgesic effect"}]}
{"smiles": "COc1ccc(-c2cc(C3(O)CCC(O)CC3)nn2-c2ccc(OC)cc2)cc1", "note": "(stereo not drawn) [Compound 8, 1-(1,5-bis(4-methoxyphenyl)-1H-pyrazol-3-yl)cyclohexan-cis-1,4-diol]", "values": [{"measurement": "inhibition in vivo at 10 mg/kg", "setting": "[4]; [7]", "result": 70, "unit": "%"}]}
{"smiles": "COc1ccc(-n2nc(C3(O)CCC(O)(C(F)(F)F)CC3)cc2-c2ccc(C)cc2)cc1", "note": "(stereo not drawn) [Compound 10, 1-(1-(4-methoxyphenyl)-5-(p-tolyl)-1H-pyrazol-3-yl)-4-(trifluoromethyl)cyclohexan-cis-1,4-diol]", "values": [{"measurement": "inhibition in vivo at 1 mg/kg", "setting": "[4]; Mus musculus, po, 1 h, dose 1 mg/kg oral, relative to vehicle and sham operation groups, read-out: Score Improvement", "result": 78, "unit": "%"}]}
{"smiles": "COc1ccc(-c2nc(C3(O)CCC(O)CC3)oc2-c2ccc(OC)cc2)cc1", "note": "(stereo not drawn) [Compound 43, 4-(4,5-bis(4-methoxyphenyl)oxazol-2-yl)cyclohexan-cis-1,4-diol]", "values": [{"measurement": "inhibition in vivo at 10 mg/kg", "setting": "[4]; [7]", "result": 100, "unit": "%"}]}
{"smiles": "COc1ccc(-n2nc(C3(O)CCC(O)CC3)cc2-c2ccc(C)nc2)cc1", "note": "(stereo not drawn) [Compound 15, 1-(1-(4-methoxyphenyl)-5-(6-methylpyridin-3-yl)-1H-pyrazol-3-yl)cyclohexan-cis-1,4-diol]", "values": [{"measurement": "inhibition in vivo at 10 mg/kg", "setting": "[4]; [7]", "result": 84, "unit": "%"}, {"measurement": "von Frey Total Score of 1 Hour after Oral Administration (Mean ± S.E.), Test Compound-Administered Group", "setting": "[4]", "result": "1.0 ± 0.4"}]}
{"smiles": "COc1ccc(-n2nc(C3(O)CCC(O)CC3)cc2-c2ccc(C)cc2)cc1", "note": "(single isomer, unassigned) [Compound 3, 1-(1-(4-methoxyphenyl)-5-(p-tolyl)-1H-pyrazol-3-yl)cyclohexan-cis-1,4-diol]", "values": [{"measurement": "Escape latency in Morris water maze", "setting": "[5]", "result": "statistically significantly shortened"}]}
{"smiles": "CCc1ccc(-c2cc(C3(O)CCC(O)CC3)nn2-c2ccc(OC)cc2)cc1", "note": "(centres unmarked) [Compound 48]", "values": [{"measurement": "inhibition in vivo at 10 mg/kg", "setting": "[4]; [7]", "result": 83, "unit": "%"}, {"measurement": "von Frey Total Score of 1 Hour after Oral Administration (Mean ± S.E.), Test Compound-Administered Group", "setting": "[4]", "result": "1.0 ± 0.5"}]}
{"smiles": "COc1ccc(-n2nc(C3(O)CCC(O)CC3)cc2-c2ccc(C)cc2)cc1F", "note": "(centres unmarked) [Compound 54]", "values": [{"measurement": "inhibition in vivo at 10 mg/kg", "setting": "[4]; [7]", "result": 83, "unit": "%"}]}
{"smiles": "COc1ccc(-n2nc(C3(O)CCC(O)CC3)cc2-c2ccc(C)c(F)c2)cc1", "note": "(centres unmarked) [Compound 55]", "values": [{"measurement": "inhibition in vivo at 3 mg/kg", "setting": "[4]; Mus musculus, po, 1 h, dose 3 mg/kg oral, relative to vehicle and sham operation groups, read-out: Score Improvement", "result": 93, "unit": "%"}]}
{"smiles": "COc1cc2c(cc1OC)C(=O)C(CC1CCN(Cc3ccccc3)CC1)C2", "note": "(centres unmarked) [donepezil]", "values": [{"measurement": "analgesic effect", "setting": "[6]", "result": "exhibits an analgesic effect"}]}
